From publication PMC546277 (Arthritis Research & Therapy, 2004)

Target: IGFBP-3 (recombinant human IGF-binding protein 3, rhIGFBP-3) (Homo sapiens, UniProt P17936)
Sequence (P17936 28-291): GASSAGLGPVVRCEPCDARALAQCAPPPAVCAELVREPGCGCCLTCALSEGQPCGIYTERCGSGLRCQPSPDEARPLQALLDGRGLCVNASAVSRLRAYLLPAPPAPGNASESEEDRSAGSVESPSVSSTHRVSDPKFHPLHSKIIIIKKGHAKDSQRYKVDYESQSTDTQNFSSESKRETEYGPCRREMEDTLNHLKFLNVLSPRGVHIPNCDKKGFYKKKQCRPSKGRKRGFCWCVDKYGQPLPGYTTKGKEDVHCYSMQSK
Sequence (P05019 49-118 partner): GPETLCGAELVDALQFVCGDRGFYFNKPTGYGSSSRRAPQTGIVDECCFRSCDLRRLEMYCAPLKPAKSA

- IC50: 2 nM
SMILES: O=C(O)c1cc2cc(O)c(O)cc2c(C(=O)c2ccc(O)c(O)c2)n1 [NBI-31772, 1-(3,4-dihydroxybenzoyl)-3-hydroxycarbonyl-6,7-dihydroxyisoquinoline]
